Reference: article PMC8173716 (Nature nanotechnology, 2020)

Key:
mouse NE = assay: Inhibition of mouse NE cleavage of vABNs by sivelestat, in vitro; type: biochemical
NE [1] = assay: vABN breath test in PA01-inoculated mice treated with sivelestat; type: in vivo, mouse; conditions: sivelestat before vABN delivery
NE [2] = conditions: cited from earlier work
NE [3] = assay: vABN breath test in LPS-challenged mice given prophylactic A1AT; type: in vivo, mouse (female C57BL/6N)
NE [4] = assay: vABN breath test in WT and SERPINA1a-e knockout mice; type: in vivo, mouse (male C57BL/6 WT and Serpina1a-e knockout); conditions: 1 mg prophylactic A1AT, LPS
human NE = conditions: cited from earlier work
NE in mouse lung lysates = conditions: cited from earlier work

Compound: CC(C)(C)C(=O)Oc1ccc(S(=O)(=O)Nc2ccccc2C(=O)NCC(=O)O)cc1 [sivelestat]
- inhibition of mouse NE cleavage of vABNs (mouse NE): mouse NE can be inhibited using sivelestat to prevent cleavage of vABNs
- attenuation of breath signal in infected mice (NE [1]): ~ 75%
- specific inhibition of NE (NE [2]): specifically inhibits NE

Compound: A1AT: Alpha-1 antitrypsin, a protein inhibitor of NE
- breath signal after LPS challenge (NE [3]; 1-mg A1AT 1–2 days before LPS challenge, vs untreated LPS-challenged controls): significantly reduce breath signal
- breath signal after LPS challenge (NE [3]; 1-mg A1AT 3 days before LPS challenge (D-3), vs untreated controls): absence of significant difference
- AUROC, untreated vs A1AT-treated (NE [3]; A1AT 1 day before LPS challenge (D-1)): 0.97
- AUROC, untreated vs A1AT-treated (NE [3]; A1AT 2 days before LPS challenge (D-2)): 0.91
- AUROC, untreated vs A1AT-treated (NE [3]; A1AT 3 days before LPS challenge (D-3)): 0.50
- correlation between breath signal and A1AT in the lungs (Pearson's r) (NE [3]; p = 0.0293): −0.6018
- protection by day 3 (NE [3]; single 1 mg AAT dose): No protection is observed by day 3
- breath signal in A1AT-treated knockout mice vs untreated knockout mice (NE [4]; p < 0.05, n = 7–8): significantly lower than that in untreated knockout mice
- AUROC, A1AT-treated knockout vs WT with acute inflammation (NE [4]; p = 0.568): 0.60
- neutrophil recruitment / anti-inflammatory effect (NE [2]): suppressed neutrophil recruitment, a well-documented anti-inflammatory effect of A1AT

Compound: Ac-Nle(O-Bzl)-Met(O)2-Oic-Abu-ACC
- selectivity for human NE (human NE): selectivity for human NE
- catalytic efficiency (kcat/Km) (human NE; fluorogenic ACC substrate): 4.79e+07 M⁻¹ s⁻¹
- binding in mouse lung lysates (NE in mouse lung lysates): bind specifically to NE in mouse lung lysates
